Test system: cultured human chondrocytes and synovial fibroblasts
Experiment: LPS-induced arthritic processes in cultured human synovial cells (IL6, MMP13 release; Col2, Aggr, HA content), summary
Assay type: cell-based
Settings: added to cell culture medium with LPS
Text: Inflammation process was initiated by additions of bacterial lipopolysaccharide (LPS) to cell culture medium. Tested parameters included cellular release of interleukin 6 (IL6) as an indicator of induced inflammation, cell culture accumulation of specific extracellular matrix (ECM) components, such as collagen type II (Col2), aggrecan (Aggr) and hyaluronic acid (HA), and release of matrix metalloproteinase 13 (MMP13) as an indicator of cartilage digesting process. Addition of LPS to cell cultures induced inflammation process characterized by dramatic increase in cellular release of IL6 and MMP13 and reduction in cell culture content of Col2, Aggr and HA.
Experiments: For the experiments cells were seeded in 96 well plastic cell culture plates covered with fibronectin (Greiner Bio-One) and grown to a confluent layer at 37° C. and 5% CO2 in corresponding cell culture medium. Cells were supplemented with 3 mcg/ml bacterial lipopolysaccharide (LPS, inflammation inducing treatment) and micronutrient composition were applied for indicated period in growth medium as indicated in the corresponding figure legends. At the end of the incubation cultured cells layers were washed twice with phosphate buffered saline (PBS) and treated in two ways: for the exposition of extracellular matrix (ECM) cells were lysed by 3 min incubation with 0.5% Triton X100/PBS which was followed by 3 min incubation with 25 mM NH4OH/PBS at room temperature or the cells were fixed by using 3% formaldehyde/PBS for one hour at 4° C. […]
Aggrecan, Collagen type II and Hyaluronic Acid content in 96 well plates prepared as described above, which is either exposed ECM or in fixed cells, was assayed by standard sandwich type immunoassay (ELISA, all reagents from Sigma-Aldrich) using rabbit polyclonal anti aggrecan, rabbit polyclonal anti collagen type II antibodies or biotinylated Hyaluronic Acid binding protein as primary treatment and goat anti rabbit IgG antibodies conjugated with horse radish peroxidase (HRP) or HRP-conjugated High Density Streptavidin as secondary treatment, respectively. Assayed component content was estimated by color changing reaction of HRP substrate (TMB substrate solution, Sigma-Aldrich) measured as 450 nm optical density using microplate optical density reader (Molecular Devices). […]
Effects of Micronutrient composition on Release of Inflammation Markers in Cultured Human Synovial Cells: Inflammation process was induced in human chondrocytes cultured in 96 well plates with LPS as described above. […] At the end of indicated incubation period interleukin 6 (IL6) and matrix metalloproteinase 13 (MMP13) levels in conditioned cell culture media were measured by ELISA using assay kits (R&D Systems) in accordance with manufacturer's protocol. […]

| Compound | reversal of LPS-induced arthritic processes (increase in IL6 and MMP13 release, reduction in Col2, Aggr and HA content) |
| --- | --- |
| C[S+](CC[C@H](N)C(=O)[O-])C[C@H]1O[C@@H](n2cnc3c(N)ncnc32)[C@H](O)[C@@H]1O (stereo partly shown) [S-Adenosyl Methionine] | reversed to different degrees |
| O=C([O-])/C=C/C(=O)[O-].[Fe+2] [Iron (II) Fumarate] | reversed to different degrees |
| O=C(O)CCC(=O)C(=O)O [Alpha Keto-Glutarate] | reversed to different degrees |
| NC(=O)CC[C@H](N)C(=O)O [L-Glutamine] | reversed to different degrees |

Source: patent US12029726B1, “Composition and method of treating conditions associated with extracellular matrix dysfunction by administering micronutrient composition” (priority 2023, dated 2024)
